Consider two compounds from patent US20230041197A1, “TREATMENT OF A DISEASE OF THE GASTROINTESTINAL TRACT WITH AN IMMUNOMODULATOR” (Progenity, Inc., priority 2018, published 2023).

The test system of series [1] is IL-6, GM-CSF, IL-15, IL-2, IL-12, IL-13, TNF-α, INF-γ.
A short description of series [2]: Tacrolimus blood pharmacokinetics, oral vs intra-cecal ingestible device (Example 10). The format is in vivo, Yorkshire-Cross farm swine. As for the experimental part: The primary objective of this study was to compare the tissue, plasma, rectal sample, and GI content pharmacokinetics of tacrolimus through oral versus intra-cecal ingestible device delivery in normal Yorkshire-Cross farm swine.
No further randomization procedure was employed.
Animals in Group 1 received an ingestible device containing 0.8 mL of vehicle solution (80% alcohol, 20% HCO-60). Animals in Group 2 received orally […] liquid formulation of tacrolimus at 4 mg/0.8 mL per animal (Prograf: 5 mg/mL). Animals in Group 3 received intra-cecally an ingestible device containing tacrolimus at 1 mg in 0.8 mL per ingestible device. Animals in Group 4 received intra-cecally an ingestible device containing tacrolimus at 2 mg in 0.8 mL per ingestible device. Animals in Group 5 received intra-cecally an ingestible device containing tacrolimus at 4 mg in 0.8 mL per ingestible device. To control for potential confounding effects of the surgery, all groups fast on Day −11 at least 24 hr before being subjected to anesthesia followed by surgical placements of a cecal port by a veterinary surgeon at Day −10. All animals were fasted for at least 12 hr prior to dosing on Day 1. Animals were dosed via either intra-cecal dosing (IC) or oral dosing (PO) at Day 1 (between 6-8 p.m.). All animals resumed feeding at approximately 4 hours after dose (11-12 p.m. after dosing).
Approximately 200-400 mg of rectal content were collected, if available, with a fecal swab (Copan Diagnostics Nylon Flocked Dry Swabs, 502CS01). The fecal swab was pre-weighed and weighed after collection in the collection tube (Sterile Tube and Cap No Media, PFPM913S), and the sample weight was recorded. The fecal swab was broken via the breakpoint, and was stored in the collection tube, and immediately frozen at −70° C. […] Immediately following euthanasia, tissue was collected.
Group 2 animals were administered a single oral dose of tacrolimus at 4 mg/0.8 mL (0.08-mg/kg) (in the vehicle solution) on Day 1. Plasma, rectal content sample, tissue collection, GI content collection and related procedures/storage/shipments was the same as those employed in Group 1.
Group 3 animals were administered a single intra-cecal ingestible device containing tacrolimus at 1-mg/0.8 mL (0.02 mg/kg) (in the vehicle solution) on Day 1 by a veterinary surgeon. Plasma, rectal content sample, tissue collection, GI content collection and related procedures/storage/shipments was the same as those employed in Group 1. All samples were analyzed for tacrolimus.
Group 4 animals were administered a single intra-cecal ingestible device of tacrolimus at 2 mg/0.8 mL (0.04 mg/kg) (in sterile vehicle solution) on Day 1 by a veterinary surgeon.
Group 5 animals are administered a single intra-cecal ingestible device containing tacrolimus at 4 mg/0.8 mL (0.08 mg/kg) (in the vehicle solution) on Day 1 by a veterinary surgeon. Plasma, rectal content sample, tissue collection, GI content collection and related procedures/storage/shipments were the same as those employed in Group 1. All samples were analyzed for tacrolimus.

Series [3] is described as follows: Tacrolimus in GI tissue, luminal content and rectal content, oral vs intra-cecal device (Example 10). The format is in vivo, Yorkshire-Cross farm swine. As for the experimental part: Animals in Group 1 (Vehicle Control) were administered a single intra-cecal ingestible device containing 0.8 mL Vehicle solution (80% alcohol, 20% castor oil (HCO-60) on Day 1. On Day −10 the animals were anesthetized, and a veterinary surgeon surgically placed an intra-cecal port in each animal. On Day 1, each animal was placed into a sling then a single intra-cecal ingestible device containing 0.8 mL vehicle solution (80% alcohol, 20% castor oil (HCO-60)) is introduced by the veterinary surgeon into the cecum via the cecal port in each animal. Following ingestible device placement, the animals were removed from the slings and placed back into their pens with water. […]
Approximately 200-400 mg of rectal content were collected, if available, with a fecal swab (Copan Diagnostics Nylon Flocked Dry Swabs, 502CS01). The fecal swab was pre-weighed and weighed after collection in the collection tube (Sterile Tube and Cap No Media, PFPM913S), and the sample weight was recorded. […]
For tissue necropsy, small intestine fluid and cecal fluid were collected separately from all the animals into two separate square plastic bottles, and stored at −20° C. The length and diameter of the cecum and the colon was measured from one animal in each group and recorded for reference. […] All samples were weighed, and the tissue sample weights were recorded. […]

Details of series [4]: species or system Yorkshire-Cross farm swine. The settings on record: in vivo. The text has this:
Tables 32 and 33 provide the tissue and plasma ratios of the animals in Groups 2-5.

[5] abbreviates: female, Yorkshire-Cross, pig, in vivo, 0.04 mg/kg.

Counter-ions that a name gives are not always drawn.

Take `C[C@@H]1CCN(C(=O)CC#N)C[C@@H]1N(C)c1ncnc2[nH]ccc12` [tofacitinib citrate]: the “GM-CSF levels in plasma or colon tissue” value in series [1] (IC vs PO treatment groups) is “nor was there a significant difference”. The “IL-6 expression in plasma” value in series [1] (PO or IC, 1 h and 3 h post-treatment) is recorded as “inhibition”. Further, in series [1] (all IC treated groups and high dose PO group (45 mg/kg), FIG. 112B), the “inhibition of IL-6 expression in colon tissue” value is “sustained through 24 h post-dose”. In series [1] (low dose PO group (15 mg/kg), by 12 h post-dose), the “IL-6 inhibition in colon tissue” value is “Recovery from IL-6 inhibition”.

Usually Cmax stands for the maximum level reached in the sampled fluid or tissue. The term Tmax denotes the time from dosing to the highest level. The compound `C=CC[C@@H]1/C=C(\C)C[C@H](C)C[C@H](OC)[C@H]2O[C@@](O)(C(=O)C(=O)N3CCCC[C@H]3C(=O)O[C@H](/C(C)=C/[C@@H]3CC[C@@H](O)[C@H](OC)C3)[C@H](C)[C@@H](O)CC1=O)[C@H](C)C[C@@H]2OC` [tacrolimus] came in with a Cmax in series [2] (PO, 0.09 mg/kg) of 3.531 ± 3.84 ng/mL. Further, the concentration at 12 h in series [2] (female, Yorkshire-Cross, pig, in vivo, 0.02 mg/kg) is 0.746 ± 0.038 ng/mL. Further, in series [2] (setting [5]), the time of peak concentration (Tmax) was 1 h and the concentration at 12 h turned out to be 1.96 ± 0.491 ng/mL. In series [2] (female, Yorkshire-Cross, pig, in vivo, 0.09 mg/kg), this compound had a concentration at 12 h of 4.35 ± 0.516 ng/mL. In addition, the “tissue (spiral and transverse colon) and luminal content (spiral, transverse, and distal colon) concentrations” value in series [3] (IC capsule high and moderate dose vs PO) was “Significantly higher”. Moreover, the “mean concentration in cecum tissue and proximate colon tissue” value in series [3] (intra-cecal vs oral, FIG. 76) was “higher”. In series [4], the “mean concentration in spiral colon lumen, transverse colon lumen and distal colon lumen” value is “statistically higher”; the “mean concentration in spiral colon tissue and transverse colon tissue” value is recorded as “statistically higher”.
